US8053585B2, “Protecting group for carboxylic acids that can be photolyzed by visible light” (Cornell Research Foundation, Inc., priority 2006, dated 2011)

Molecular target: T1, α1-subunit of the human glycine receptor (Homo sapiens, UniProt P23415)
T1 construct: expressed in transfected cells; host or cells: HEK 293 cells, transiently transfected (Polyfect), co-transfected with GFP plasmid as marker; cDNA from Prof; H. Betz
T1 sequence (P23415 29-457): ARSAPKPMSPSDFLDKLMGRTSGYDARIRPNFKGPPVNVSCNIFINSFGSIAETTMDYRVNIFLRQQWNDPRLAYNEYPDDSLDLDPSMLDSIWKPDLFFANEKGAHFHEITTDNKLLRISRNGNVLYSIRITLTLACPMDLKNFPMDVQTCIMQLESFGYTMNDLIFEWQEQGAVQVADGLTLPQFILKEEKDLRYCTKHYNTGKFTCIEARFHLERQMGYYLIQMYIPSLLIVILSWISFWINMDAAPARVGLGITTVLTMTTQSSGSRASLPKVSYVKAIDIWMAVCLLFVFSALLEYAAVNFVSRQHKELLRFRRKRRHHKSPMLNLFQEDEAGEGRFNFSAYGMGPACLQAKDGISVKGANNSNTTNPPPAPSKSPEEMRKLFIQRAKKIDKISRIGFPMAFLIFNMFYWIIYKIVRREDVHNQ
Assay: Flash lamp photolysis of DECM-caged glycine on HEK 293 cells
Format: cell-based
Conditions: 1 mM caged compound
Procedure: The cells were used for electrophysiological experiments between 24 and 72 h after each passage. Whole-cell currents evoked by glutamate or glycine (100 μM) were recorded using the whole-cell configuration (Hamill et al., “Improved Patch-Clamp Techniques for High-Resolution Current Recording From Cells and Cell-Free Membrane Patches,” Pfluegers Arch 391:85-100 (1981), which is hereby incorporated by reference in its entirety) at room temperature, −60 mV, and pH 7.4. The experiments using DECM-caged glutamate were carried out in the absence or presence of 2 mM DECM-caged glutamate (FIG. 5A) or 1 mM 7-N,N-diethylamino-4-hydroxymethylcoumarin (2) (FIG. 5B). Alternatively, the experiments using DECM-caged glycine were carried out in the absence or presence of 1 mM DECM-caged-glycine (FIG. 10). The solution in the recording pipet contained 120 mM CsCl, 10 mM EGTA, and 10 mM HEPES, adjusted to pH 7.4. The HEK cell bath solution contained 150 mM NaCl, 1 mM CaCl2, 10 mM HEPES, pH 7.4. The resistance of the recording electrode filled with buffer solution was typically 3-5 MΩ and the series resistance was 5-6 MΩ. The cells were held at a constant transmembrane voltage of −60 mV and room temperature (22° C.). Whole-cell currents were amplified by using an Axopatch 200B (Axon Instruments, Foster City, Calif.) amplifier and filtered at 1-5 kHz by using a […], low-pass, Bessel (Dagan Corporation, Minneapolis, Minn.) filter incorporated in the amplifier. The filtered signal was digitized by a Digidata 1322A (Axon Instruments, Union City, Calif.) or a Labmaster DMA 100 KHz digitizing board (Scientific Solutions, Mentor, Ohio) controlled by pCLAMP9 software (Axon Instruments).
The light produced by the Rapp (Rapp OptoElectronics, Hamburg, Germany) xenon flash lamp (SP-20) was coupled into an optical fiber (600 μm internal diameter), which delivered the light to the cell. The concentration of DECM-caged-glycine used was 1 mM for the results in FIG. 11. Typical light energies were 150-250 μJ per pulse. […] Data were analyzed with Microcal Origin3.5 software (Microcal, Northampton, Mass.).

## CCN(CC)c1ccc2c(COC(=O)CN)cc(=O)oc2c1 [DECM-caged glycine, (7-N,N-Diethylaminocoumarin-4-yl)-methyl-glycine-trifluoroacetate]
flash-lamp light pulse, 250 μJ
  concentration of liberated glycine: 60 µM
−60 mV, pH 7.4, 22° C.
  I∞, current at t=∞: −4950±57 pA
  kobs, apparent pseudo first-order rate constant of the current rise: 125 ± 16 s⁻¹
